Source: publication PMC8145641 (Cells, 2021)
Converted amounts (≈) assume the structure as drawn.

Experiments:
[1] = test system: Hs27 (human foreskin fibroblast); experiment: Cytotoxicity assay (MTT); assay type: cell-based; settings: 24 h treatment
T. gondii = settings: values from the earlier paper; ref [25]; cited from earlier work
T. gondii RH-GFP = experiment: microbe, parasite or virus in culture; assay type: cell-based, Toxoplasma gondii; settings: for IC50: Toxoplasma gondii, HS27, 96 h, read-out: IC50 (50% inhibition of T. gondii proliferation); for SI (selectivity index, CC30/IC50): ratio of CC30 (Hs27) to IC50 (T. gondii), 1b–12b and positive controls
Method: Cell and parasite culture: The Hs27 (human foreskin fibroblast) (ATCC® CRL-1634™) (ATCC, Manassas, VA, USA) were culturing in DMEM (Dulbecco’s modified Eagle’s medium-ATCC® 30-2002™, ATCC) supplemented with 10% fetal bovine serum (fetal bovine serum, ATCC® 30-2020™, ATCC), 100 I.U./mL penicillin and 100 μg/mL streptomycin (penicillin-streptomycin solution ATCC® 30-2300™, ATCC). Cells were trypsinized (Trypsin-EDTA Solution ATCC® 30-2101™, ATCC) twice a week and seeded at a density of 1 × 10^6 per T25 cell culture flask and incubated in a 37 °C and 5% CO2 to achieve a confluent monolayer. The RH strain of Toxoplasma gondii (RH-GFP ATCC® 50940™, ATCC, highly virulent, haplogroup first, expression of green fluorescent protein) was maintained as tachyzoites, in parasite culture medium, which contains DMEM medium with 3% HIFBS (heat-inactivated FBS; 1 h in 56 °C). Infected tissue culture cells were incubated in a 37 °C and 5% CO2.
After 72 h of incubation, the medium was removed and then 1 × 10^5 per well of tachyzoites of the RH strain were added to the cell monolayers, in DMEM without phenol red with 3% HIFBS. One hour later, the compounds and drugs dilutions in the DMEM without phenol red medium were added to the Hs27 cells with T. gondii. Concentration of the compounds below cytotoxic concentration (<CC30), sulfadiazine 0–10,000 μM and trimethoprim, pyrimethamine and atovaquone 0–200 μM. After a subsequent 96 h of incubation, the plates were read with covered lids, and both excitation (475 nm) and emission (509 nm) from the bottom using multimode microplate reader SpectraMax® i3. The results were expressed as mean fluorescent intensity (MFI) and transformed to the percentage of viability compared to untreated cells. Finally, the inhibitory concentrations for 50% inhibition of T. gondii proliferation (IC50) were calculated. All experiments were performed in triplicate.
Graphs and statistical analyses: Statistical analyses and graphs were performed using GraphPad Prism version 9.0.0 for macOS (GraphPad Software, San Diego, CA, USA). […] Additionally, a relationship between cytotoxicity and antiparasitic activity were calculated as the ratio of the 30% cytotoxic concentration (CC30) to the 50% antiparasitic concentration (IC50) and presented as the selectivity index (SI).

[2] = test system: tachyzoites of the RH-GFP strain; experiment: Influence of compounds during Toxoplasma growth, Assay A (invasion); assay type: cell-based, Toxoplasma gondii; settings: compound at IC50 present 3 h during infection, washed, 24 h free medium; vs non-treated
Method: (§1) Influence of Compounds during Toxoplasma Growth (Assay A and B): Hs27 cells were cultured on Lab-Tek™ 4-well Chamber Slides (Nunc, Thermo Fisher Scientific, Waltham, MA, USA) (5 × 10^4 cells/500 μL per well).
Assay A—after 48 h, the medium was removed and then 5 × 10^5/500 µL/well tachyzoites of the RH-GFP strain were added to the cell monolayers, in parasite culture medium with the selected compounds at IC50 concentration: 2b, 5b, 8b, 11b or 12b, for 3 h. Then, the cells were washed to remove extracellular parasites and parasite culture medium (without any compounds) was added for 24 h.
(§2) In both assays as the controls, Hs27 cells were infected, but not treated. After subsequent 24 h of incubation (Assay A and B), the slides were washed with sterile PBS, fixed with formaldehyde solution (252549, Sigma-Aldrich), 3.7% in PBS for 20 min and stained with DAPI for 10 min (1 mg/mL, ThermoFisher Scientific). Microscopic analysis of 100 cells in turn, comprised of counting the infected cell ratio and tachyzoites per each parasitophorous vacuoles of infected cell, was performed using a fluorescent microscope (Axio Scope.A1, Carl Zeiss, Jena, Germany) at a magnification ×1000. For image processing ZEISS ZEN Microscope Software version 3.1 was used. Three independent experiments on triplicate chamber slides using the same conditions for both assays were performed.

[3] = test system: tachyzoites of the RH-GFP strain; experiment: Influence of compounds during Toxoplasma growth, Assay B (intracellular proliferation); assay type: cell-based, Toxoplasma gondii; settings: 3 h infection without compound, washed, 24 h with compound at IC50
Method: as §1
Assay B—after 48 h, the medium was removed and then 5 × 10^5/500 µL/well tachyzoites of the RH-GFP strain were added to the cell monolayers, in parasite culture medium for 3 h.
as §2

## Cc1nc[nH]c1C(=O)NNC(=S)Nc1ccc(Br)cc1 [9a]
[1]
  CC30 (cytotoxic concentration causing 30% of cells proliferation inhibition): 48.89 µg/mL
T. gondii
  IC50 (50% inhibition of T. gondii proliferation): 14.57 µg/mL

## Cc1nc[nH]c1C(=O)NNC(=S)Nc1cccc(I)c1 [11a]
[1]
  CC30 (cytotoxic concentration causing 30% of cells proliferation inhibition): 85.57 µg/mL
T. gondii
  IC50 (50% inhibition of T. gondii proliferation): 10.30 µg/mL

## Cc1nc[nH]c1-c1nnc(Nc2ccc(Cl)cc2)s1 [6b]
[1]
  CC30 (cytotoxic concentration causing 30% of cells proliferation inhibition): 45.97 µg/mL
T. gondii RH-GFP
  IC50: 8.36 µg/mL (≈ 28.7 µM)
  SI (selectivity index, CC30/IC50): 5.50

## Cc1nc[nH]c1C(=O)NNC(=S)Nc1cccc(Br)c1 [8a]
[1]
  CC30 (cytotoxic concentration causing 30% of cells proliferation inhibition): 96.12 µg/mL
T. gondii
  IC50 (50% inhibition of T. gondii proliferation): 15.64 µg/mL

## Cc1nc[nH]c1C(=O)NNC(=S)Nc1ccccc1Br [7a]
[1]
  CC30 (cytotoxic concentration causing 30% of cells proliferation inhibition): 205.31 µg/mL
T. gondii
  IC50 (50% inhibition of T. gondii proliferation): 27.65 µg/mL

## Cc1nc[nH]c1-c1nnc(Nc2ccccc2Br)s1 [7b]
[1]
  CC30 (cytotoxic concentration causing 30% of cells proliferation inhibition): 29.71 µg/mL
T. gondii RH-GFP
  IC50: 8.77 µg/mL (≈ 26.1 µM)
  SI (selectivity index, CC30/IC50): 3.39

## Cc1nc[nH]c1-c1nnc(Nc2ccc(Br)cc2)s1 [9b]
[1]
  CC30 (cytotoxic concentration causing 30% of cells proliferation inhibition): 21.52 µg/mL
T. gondii RH-GFP
  IC50: 5.41 µg/mL (≈ 16.1 µM)
  SI (selectivity index, CC30/IC50): 3.98

## Cc1nc[nH]c1C(=O)NNC(=S)Nc1ccc(F)cc1 [3a]
[1]
  CC30 (cytotoxic concentration causing 30% of cells proliferation inhibition): 266.20 µg/mL
T. gondii
  IC50 (50% inhibition of T. gondii proliferation): 110.31 µg/mL

## Cc1nc[nH]c1-c1nnc(Nc2ccccc2F)s1 [1b]
[1]
  CC30 (cytotoxic concentration causing 30% of cells proliferation inhibition): 157.71 µg/mL
T. gondii RH-GFP
  IC50: 26.2 µg/mL (≈ 95.1 µM)

## Cc1nc[nH]c1-c1nnc(Nc2ccc(F)cc2)s1 [3b]
[1]
  CC30 (cytotoxic concentration causing 30% of cells proliferation inhibition): 26.17 µg/mL
T. gondii RH-GFP
  IC50: 11.4 µg/mL (≈ 41.5 µM)
  SI (selectivity index, CC30/IC50): 2.29

## Cc1nc[nH]c1-c1nnc(Nc2cccc(I)c2)s1 [11b]
[1]
  CC30 (cytotoxic concentration causing 30% of cells proliferation inhibition): 36.48 µg/mL
T. gondii RH-GFP
  IC50: 4.49 µg/mL (≈ 11.7 µM)
  SI (selectivity index, CC30/IC50): 8.13
[2]
  number of tachyzoites per vacuole (Assay A): significant reductions
  percentage of infected cells (Assay A): significant reductions
[3]
  number of intravacuolar tachyzoites (Assay B): significant reduction
  percentage of infected cells (Assay B): still the same
  size of parasitophorous vacuole (Assay B): significant reduction

## Cc1nc[nH]c1-c1nnc(Nc2ccccc2I)s1 [10b]
[1]
  CC30 (cytotoxic concentration causing 30% of cells proliferation inhibition): 89.54 µg/mL
T. gondii RH-GFP
  IC50: 11 µg/mL (≈ 28.8 µM)
  SI (selectivity index, CC30/IC50): 8.13
